# Read-outs that look alike come from different tables or passages of the source. Non-standard residues stand in square brackets, D forms with d. Residues, ends and D or L forms follow the SMILES beside them.
# How the values were obtained:
# [1] = test system: enzyme (SP-Sepharose HP fraction) derived from Sphingobacterium sp. strain FERM BP-8124; format: biochemical; design: key to Produced peptide (mM): +: those peptides for which production was confirmed but which were unable to be quantified due to the absence of a standard; a trace amount; settings: 0.33 units enzyme, pH 9.0, 25° C., 1.5 hours
# Description: Substrate specificity was examined for enzyme derived from Sphingobacterium sp. strain FERM BP-8124 (Depositary institution: National Institute for Advanced Industrial Science and Technology, International Patent Organism Depositary, Address of depositary institution: Central. 6, 1-1-1 Higashi, Tsukuba City, Ibaraki Prefecture, Japan, International deposit date: Jul. 22, 2002). 100 μl of 100 mM borate buffer (pH 9.0) containing the various carboxy components at a final concentration of 100 mM and the various amine components at a final concentration of 150 mM shown in Tables 15-1 to 15-4, the SP-Sepharose HP fraction enzyme purified in Example 22 (addition of 0.33 units in the reaction liquid) and 10 mM EDTA were allowed to react at 25° C. for 1.5 hours. […] In addition, hydrochlorides were used for all carboxy components.
# Substrate specificity with respect to oligopeptide production was examined for enzyme derived from Sphingobacterium sp. strain FERM BP-8124 (Depositary institution: National Institute for Advanced Industrial Science and Technology,.International Patent Organism Depositary, Address of depositary institution: Chuo Dai-6, 1-1 Higashi 1-Chome, Tsukuba-shi, Ibaraki-ken, Japan, International deposit date: Jul. 22, 2002). A 100 μl aliquot of 100 mM borate buffer (pH 9.0) containing the various carboxy components at a final concentration of 100 mM and the various amine components at a final concentration of 150 mM shown in Table 16, the SP-Sepharose HP fraction enzyme purified in Example 22 (addition of 0.33 units in the reaction liquid) and 10 mM EDTA were allowed to react for 1.5 hours at 25° C. Furthermore, hydrochloride salts were used for all carboxy components.
# [2] = test system: peptide-producing enzyme (Mono S fraction) from Empedobacter brevis strain FERM BP-8113; assay: Enzyme substrate specificity (1)-(10), (13), (14); format: biochemical; settings: pH 9.0, 25° C., 3 hours
# From the text: Ester specificity was examined in the case of using L-amino acid ester for the carboxy component. […] The amounts of L-Ala-L-Gln produced in this reaction are shown in Table 4 (HCl represents hydrochloride in Table 4). Peptide production was examined in the case of using L-alanine methyl ester for the carboxy component and using various L-amino acids for the amine component. […] (The “+” mark indicates those peptides for which production was confirmed but which were unable to be quantified due to the absence of a standard, while “tr” indicates a trace amount.) Peptide production was examined in the case of using various types of L-amino acid methyl esters for the carboxy component and using L-glutamine for the amine component. […] Peptide production was examined in the case of using various L-amino acid methyl esters for the carboxy component and various L-amino acids for the amine component. […] (The “tr” indicates a trace amount.) Furthermore, Tween-80 was added to the reaction system to a final concentration of 0.1% in the case of using L-Trp-OMe. (The “+” mark indicates those peptides for which production was confirmed but which were unable to be quantified due to the absence of a standard.) […] (The “tr” indicates a trace amount.) Peptide production was examined using various L-amino acid amides for the carboxy component, and various L-amino acids for the amine component. […] Peptide production was examined in the case of using various L-alanine methyl esters for the carboxy component and C-protected L-amino acids for the amine component. […] Peptide production was examined in the case of using various amino acid methyl esters for the carboxy component and methylamine for the amine component. […] Peptide production was examined in the case of using β-amino acid ester for the carboxy component or β-amino acid for the amine component. […] (The “tr” indicates a trace amount.) Oligopeptide production was examined in the case of using L-amino acid ester for the carboxy component and peptide for the amine component. […] Substrate specificity was additionally assessed using the same enzyme fraction as that used in Example 5. […] (A “+” mark indicates those for which production was confirmed but which were unable to be quantified due to the absence of a standard, while “tr” indicates a trace amount). Substrate specificity with respect to oligopeptide production was assessed using the same enzyme fraction as Example 26. […] (A “+” mark indicates those for which production was confirmed but which were unable to be quantified due to the absence of a standard, while “tr” indicates a trace amount). It should be noted that hydrochlorides were used for all of the carboxy components.
# [3] = Table 15-2, carboxy component 100 mM, L-Gln 150 mM
# [4] = L-amino acid methyl ester hydrochloride 100 mM, 150 mM L-glutamine
# [5] = Table 15-1, carboxy component 100 mM, amine component 150 mM
# [6] = 100 mM L-alanine methyl ester hydrochloride, L-amino acid 150 mM
# [7] = Table 16, oligopeptide production, carboxy component 100 mM, amine component 150 mM
# [8] = L-amino acid ester 100 mM, amino acid or peptide amine component 150 mM
# [9] = Table 15-4, amides or methylamine as components, 100 mM / 150 mM
# [10] = amino acid methyl ester 100 mM, methylamine 150 mM
# [11] = L or D amino acid methyl ester hydrochloride 100 mM, L or D amino acid 150 mM
# [12] = Table 15-3, carboxy component 100 mM, amine component 150 mM
# [13] = L-amino acid methyl ester hydrochloride 100 mM, L-amino acid 150 mM
molecule,measurement,setting,value
NC(=O)CC[C@H](NC(=O)[C@@H](N)CO)C(=O)O [L-Ser-L-Gln] (H-Ser-Gln-OH),Produced peptide,[1]; [3],12.9 mM
same,Produced peptide,[2]; [4],24.0 mM
CC(C)[C@H](NC(=O)[C@H](C)N)C(=O)O [L-Ala-L-Val] (H-Ala-Val-OH),Produced peptide,[1]; [5],10.9 mM
same,Produced peptide,[2]; [6],20.8 mM
L-Ala-L-His-L-Ala,Produced peptide,[1]; [7],58.0 mM
same,Produced peptide,[2]; [8],55.9 mM
L-Ala-Gly-L-Ala,Produced peptide,[1]; [7],35.1 mM
same,Produced peptide,[2]; [8],25.9 mM
C[C@H](N)C(=O)NCC(=O)O [L-Ala-Gly] (H-Ala-Gly-OH),Produced peptide,[1]; [5],11.1 mM
same,Produced peptide,[2]; [6],13.7 mM
CNC(=O)[C@@H](N)[C@@H](C)O [L-Thr-methylamine],Produced peptide,[1]; [9],0.3 mM
same,Produced peptide,[2]; [10],0.2 mM
C[C@@H](N)C(=O)N[C@@H](CO)C(=O)O [D-Ala-L-Ser] (H-[dA]-Ser-OH),Produced peptide,[1]; [5],24.1 mM
same,Produced peptide,[2]; [11],20.3 mM
C[C@@H](O)[C@H](N)C(=O)N[C@@H](CCC(N)=O)C(=O)O [L-Thr-L-Gln] (H-Thr-Gln-OH),Produced peptide,[1]; [3],36.1 mM
same,Produced peptide,"[2]; L-amino acid amide hydrochloride 100 mM as carboxy component, L-amino acid 150 mM",0.3 mM
same,Produced peptide,[2]; [4],81.9 mM
C[C@H](NC(=O)[C@@H](N)[C@@H](C)O)C(=O)O [L-Thr-L-Ala] (H-Thr-Ala-OH),Produced peptide,[1]; [12],5.8 mM
same,Produced peptide,[2]; [13],9.4 mM
C[C@H](N)C(=O)N[C@@H](CC(N)=O)C(=O)O [L-Ala-L-Asn] (H-Ala-Asn-OH),Produced peptide,[1]; [5],52.3 mM
same,Produced peptide,[2]; [6],65.5 mM
L-Ala-Gly-Gly,Produced peptide,[1]; [7],33.7 mM
same,Produced peptide,[2]; [8],41.7 mM
CC[C@H](C)[C@H](N)C(=O)N[C@@H](CCC(N)=O)C(=O)O [L-Ile-L-Gln] (H-Ile-Gln-OH),Produced peptide,[1]; [3],6.4 mM
same,Produced peptide,[2]; [4],8.4 mM
CC(C)[C@H](N)C(=O)N[C@@H](Cc1ccccc1)C(=O)O [L-Val-L-Phe] (H-Val-Phe-OH),Produced peptide,[1]; [12],1.0 mM
same,Produced peptide,[2]; [13],6.1 mM
NC(=O)CC[C@H](NC(=O)[C@@H](N)Cc1ccc(O)cc1)C(=O)O [L-Tyr-L-Gln] (H-Tyr-Gln-OH),Produced peptide,[1]; [3],0.6 mM
same,Produced peptide,[2]; [4],3.4 mM
NC(=O)CC[C@H](NC(=O)[C@@H](N)CCC(N)=O)C(=O)O [L-Gln-L-Gln] (H-Gln-Gln-OH),Produced peptide,[1]; [3],0.1 mM
same,Produced peptide,[2]; [4],0.3 mM
L-Thr-Gly-Gly,Produced peptide,[1]; [7],8.4 mM
same,Produced peptide,[2]; [8],83.0 mM
CSCC[C@H](N)C(=O)N[C@@H](CO)C(=O)O [L-Met-L-Ser] (H-Met-Ser-OH),Produced peptide,[1]; [12],25.3 mM
same,Produced peptide,[2]; [13],12.8 mM
C[C@H](N)C(=O)N[C@@H](C)C(=O)O [L-Ala-L-Ala] (H-Ala-Ala-OH),Produced peptide,[1]; [5],13.1 mM
same,Produced peptide,[1]; [7],25.6 mM
same,Produced peptide,[2]; [6],25.4 mM
same,Produced peptide,[2]; [8],28.7 mM
C[C@H](N)C(=O)N[C@H](CO)C(=O)O [L-Ala-D-Ser] (H-Ala-[dS]-OH),Produced peptide,[1]; [5],3.3 mM
same,Produced peptide,[2]; [11],5.4 mM
CSCC[C@H](NC(=O)[C@@H](N)CCCN=C(N)N)C(=O)O [L-Arg-L-Met] (H-Arg-Met-OH),Produced peptide (mM),[1]; [12],tr
same,Produced peptide,[2]; [13],0.7 mM
L-Ala-L-Ala-L-Ala,Produced peptide,[1]; [7],41.1 mM
same,Produced peptide,[2]; [8],57.5 mM
Gly-L-Ala-L-Tyr,Produced peptide,[1]; [7],0.6 mM
same,Produced peptide,[2]; [8],1.7 mM
NCCCC[C@H](NC(=O)CN)C(=O)O [Gly-L-Lys] (H-Gly-Lys-OH),Produced peptide,[1]; [12],48.2 mM
same,Produced peptide,[2]; [13],9.8 mM
C[C@@H](N)C(=O)N[C@H](CO)C(=O)O [D-Ala-D-Ser] (H-[dA]-[dS]-OH),Produced peptide,[1]; [5],5.5 mM
same,Produced peptide,[2]; [11],0.2 mM
CSCC[C@H](NC(=O)[C@@H](N)[C@@H](C)O)C(=O)O [L-Thr-L-Met] (H-Thr-Met-OH),Produced peptide,[1]; [12],28.9 mM
same,Produced peptide,[2]; [13],38.6 mM
C[C@H](N)C(=O)N[C@@H](Cc1ccc(O)cc1)C(=O)O [L-Ala-L-Tyr] (H-Ala-Tyr-OH),Produced peptide,[1]; [5],11.1 mM
same,Produced peptide,[2]; [6],17.6 mM
C[C@H](N)C(=O)N[C@@H](CCCCN)C(=O)O [L-Ala-L-Lys] (H-Ala-Lys-OH),Produced peptide,[1]; [5],71.2 mM
same,Produced peptide,[2]; [6],71.8 mM
C[C@H](N)C(=O)N[C@@H](Cc1c[nH]c2ccccc12)C(=O)O [L-Ala-L-Trp] (H-Ala-Trp-OH),Produced peptide,[1]; [5],46.0 mM
same,Produced peptide,[2]; [6],53.9 mM
C[C@H](N)C(=O)N[C@@H](CC(=O)O)C(=O)O [L-Ala-L-Asp] (H-Ala-Asp-OH),Produced peptide,[1]; [5],2.3 mM
same,Produced peptide,[2]; [6],2.1 mM
NCC(=O)N[C@@H](CCCN=C(N)N)C(=O)O [Gly-L-Arg] (H-Gly-Arg-OH),Produced peptide,[1]; [12],17.9 mM
same,Produced peptide,[2]; [13],25.5 mM
CNC(=O)CN [Gly-methylamine],Produced peptide,[1]; [9],1.0 mM
same,Produced peptide,[2]; [10],1.1 mM
L-Ala-L-Phe-Gly,Produced peptide,[1]; [7],34.0 mM
same,Produced peptide,[2]; [8],43.7 mM
CSCC[C@H](NC(=O)[C@@H](N)CCSC)C(=O)O [L-Met-L-Met] (H-Met-Met-OH),Produced peptide,[1]; [12],28.4 mM
same,Produced peptide,[2]; [13],25.0 mM
CC(C)[C@H](N)C(=O)N[C@@H](CO)C(=O)O [L-Val-L-Ser] (H-Val-Ser-OH),Produced peptide,[1]; [12],31.9 mM
same,Produced peptide,[2]; [13],30.8 mM
NC(N)=NCCC[C@H](N)C(=O)N[C@@H](Cc1ccccc1)C(=O)O [L-Arg-L-Phe],Produced peptide (mM),[1]; [12],tr
same,Produced peptide,[2]; [13],1.9 mM
C[C@H](N)C(=O)N[C@@H](C)C(N)=O [L-Ala-L-Ala-NH2] (H-Ala-Ala-NH2),Produced peptide,[1]; [9],9.2 mM
same,Produced peptide,"[2]; L-Ala-OMe 100 mM, L-amino acid amide 150 mM as amine component",8.3 mM
C[C@H](N)C(=O)N[C@@H](CCC(=O)O)C(=O)O [L-Ala-L-Glu] (H-Ala-Glu-OH),Produced peptide,[1]; [5],39.1 mM
same,Produced peptide,[2]; [6],42.9 mM
NC(N)=NCCC[C@H](N)C(=O)N[C@@H](CO)C(=O)O [L-Arg-L-Ser] (H-Arg-Ser-OH),Produced peptide,[1]; [12],2.2 mM
same,Produced peptide,[2]; [13],3.6 mM
CSCC[C@H](N)C(=O)N[C@@H](CCC(N)=O)C(=O)O [L-Met-L-Gln] (H-Met-Gln-OH),Produced peptide,[1]; [3],32.6 mM
same,Produced peptide,[2]; [4],12.0 mM

# — US20040253665A1, “Novel peptide-producing enzyme, microbe producing the enzyme and method for dipeptide synthesis using them” (AJINOMOTO CO., INC., priority 2002, published 2004)
